Reference: patent publication US20250281462A1, “THERAPEUTICALLY EFFECTIVE ORAL ADMINISTRATION OF A 2 ARYLBENZIMIDAZOLE” (Tranquis Therapeutics, Inc., priority 2021, published 2025)
Values joined by “and” are separate entries in the source; they are usually repeats but may differ in a detail not shown here. Identical values can stand only once. “Also recorded” adds a separate entry of the source. Like-named read-outs stand apart in the source and are kept apart here. Values belong to the compound of their own block, whether it stands above or below them.

Tests used:
PGC-1α = PGC-1α protein expression in BV2 cells (Western blot); assay type: cell-based, murine; details: 20 μM, 24 hours
Method: Frozen BV2 murine microglia cells were thawed and propagated in complete media (RPMI, 10% heat-inactivated FBS, 1% L-glutamine, 1% Pen-Strep) until the growth rate reached log phase. For protein expression analysis, DMSO (1:1000 final dilution) or TQS-168 in DMSO (1:1000 final dilution) at 20 μM was added to cell cultures. After 24 hours stimulation, supernatant was discarded and cell lysis buffer (Cell Signal) was added to adherent cells to extract protein. Total protein was quantified and normalized across all samples by BCA assays. Two replicates of untreated cultures and three replicates of TQS-168-treated cultures were investigated, with each replicate containing lysates from 5,000,000 BV2 myeloid cells. PGC1α expression was detected by Western Blot using an anti-PGC-1α antibody (SC13067, Santa Cruz Biotechnology, 1:500 dilution). Anti-[…] antibody (SC8432, Santa Cruz Biotechnology, 1:2000 dilution) was used to quantify beta-actin, a housekeeping gene whose expression level is not known to be affected by TQS-168. […] Total protein was quantified and normalized across all samples by BCA assays. PGC-1α was subsequently detected by Western Blot using an anti-PGC-1α antibody (SC13067, Santa Cruz Biotechnology, 1:500 dilution). β-actin was detected with an anti-β-actin antibody (SC8432, Santa Cruz Biotechnology, 1:2000 dilution). […]

[1] = Plasma and brain concentrations after single oral dose in rats; assay type: in vivo; details: both sexes, Sprague-Dawley, rat, rats plasma, suspension; for AUC(0-t): plasma, po
Method: Both male (n=3) and female (n=3) Sprague-Dawley rats were administered a single dose of TQS-168 by oral gavage at 50, 150, or 500 mg/kg of TQS-168. TQS-168 was prepared as a suspension with 0.5% methylcellulose in PBS.
Plasma samples were collected at 30, 60, 120, 240, and 1440 minutes after administration. Brain samples were collected in some animals at 60, 240, and 1440 minutes after the single oral dose of TQS-168 at 500 mg/kg. Samples were processed for LC-MS analysis of TQS-168 concentrations.
Cmax and AUC0-t values from the plasma tissues were calculated using PKSolver (Compute Methods Programs Biomed. 2010 September; 99(3):306-14. doi: 10.1016j.cmpb.2010.01.007. Epub 2010 Feb. 21) with the underlying data plotted FIG. 12a.

[2] = background statement; cited from earlier work
[3] = system: murine models of neurodegenerative diseases; details: mice, oral 25-50 mg/kg; Parkinson's disease, Alzheimer's disease, ALS models; cited from earlier work
[4] = human, in vivo
clinical = details: male, human, in vivo, 120 mg

Structure (SMILES): CC(C)(C)c1ccc(-c2nc3ccccc3[nH]2)cc1 [TQS-168, 2-(4-tert-butylphenyl)-1H-benzimidazole]
induction of PGC-1α protein expression (PGC-1α): induces PGC-1α protein expression; also recorded: induction of PGC-1α protein expression
AUC(0-t) ([1]; 50 mg/kg, 50 mg/kg single oral dose): 833 ng·h/mL
AUC(0-t) ([1]; 150 mg/kg, 150 mg/kg single oral dose): 1830 ng·h/mL
AUC(0-t) ([1]; 500 mg/kg, 500 mg/kg single oral dose): 3330 ng·h/mL
Cmax ([1]; 50 mg/kg single oral dose): 60 ng/mL
Cmax ([1]; 150 mg/kg single oral dose): 120 ng/mL
Cmax ([1]; 500 mg/kg single oral dose): 170 ng/mL
solubility [2]: highly insoluble
myeloid-mediated inflammation and disease severity [3]: suppress myeloid-mediated inflammation and reduce disease severity

MPR AUC(0-inf) ([4]; po, 60 mg): 5.63
MPR Cmax ([4]; po, 60 mg): 2.44
MPR AUC(0-inf) ([4]; po, 90 mg): 6.16
MPR Cmax ([4]; po, 90 mg): 1.93
MPR AUC(0-inf) ([4]; po, 270 mg): 5.92
MPR Cmax ([4]; po, 270 mg): 2.62
MPR AUC(0-inf) ([4]; po, 540 mg): 7.91
MPR Cmax ([4]; po, 540 mg): 3.43
Frel AUC(0-inf) ([4]; male, 180 mg): 63.6%
Frel AUC(0-last) ([4]; male, 180 mg): 63.5%
Frel Cmax ([4]; male, 180 mg): 64.9%
AUC(0-24) ([4]; male, po, 60 mg): 383 ng·h/mL
AUC(0-inf) ([4]; male, po, 60 mg): 410 ng·h/mL
Cmax ([4]; male, po, 60 mg): 65.3 ng/mL
T1/2 ([4]; male, po, 60 mg): 4.89 h
Tmax ([4]; male, po, 60 mg): 2.50 h
AUC(0-24) ([4]; male, po, 90 mg): 1170 ng·h/mL
AUC(0-inf) ([4]; male, po, 90 mg): 1200 ng·h/mL
AUC(0-last) ([4]; male, po, 90 mg): 1190 ng·h/mL
Cmax ([4]; male, po, 90 mg): 214 ng/mL
T1/2 ([4]; male, po, 90 mg): 4.79 h
Tmax ([4]; male, po, 90 mg): 1.25 h
AUC(0-24) ([4]; male, po, 270 mg): 4250 ng·h/mL
AUC(0-inf) ([4]; male, po, 270 mg): 4950 ng·h/mL
Cmax ([4]; male, po, 270 mg): 621 ng/mL
T1/2 ([4]; male, po, 270 mg): 10.4 h
Tmax ([4]; male, po, 270 mg): 2.00 h
AUC(0-24) ([4]; male, po, 540 mg): 10800 ng·h/mL
AUC(0-inf) ([4]; male, po, 540 mg): 12700 ng·h/mL
Cmax ([4]; male, po, 540 mg): 1110 ng/mL
T1/2 ([4]; male, po, 540 mg): 11.3 h
Tmax ([4]; male, po, 540 mg): 4.00 h
half-life (clinical): 10.2 h
AUC (clinical; AUC(0-tau)): 2270 ng·h/mL
Cmax (clinical; Cmax): 331 ng/mL and 1.24 µM
Tmax (clinical; Tmax): 1.5 h
Tmax (clinical; Tmax (median)): 1.75 h
Tmax (clinical; po, Tmax (median)): 1.5 h
Structure (SMILES): CC(C)(C)c1ccc(-c2nc3cc(O)ccc3[nH]2)cc1 [TQS-621]
